Measured values published in US20150181873A1, “HERBICIDE-RESISTANT SUNFLOWER PLANTS, POLYNUCLEOTIDES ENCODING HERBICIDE=RESISTANT ACETO HYDROXY ACID SYNTHASE LARGE SUBUNIT PROTEINS, AND METHODS OF USE” (NIDERA S.A., priority 2013, published 2015).

Columns and labels:
S4897 plants = test: Field trial of resistance to imazapic; type: in vivo, Helianthus annuus; settings: S4897 vs IMISUN-1 (Ala190-to-Val); field trials in Argentina; no data presented
Experimental: In field trials in Argentina, S4897 plants were tested for resistance to imazapic. […] This trial had single row plots and was treated on a windy day, so the actual herbicide dose reaching the plants was likely less than was applied.

[1] = system: Clearfield sunflower variety B; test: Greenhouse spray injury rating, Clearfield variety B; type: in vivo, Helianthus annuus; settings: scale 0-9
Text: (§1) Sunflower lines S4897, Clearfield® sunflower varieties A, B, C and a conventional non-Clearfield variety were sprayed with three rates of imazamox (Raptor™), 100, 200 and 300 gm ai/ha plus 0.5% Sun It II and two rates of imazapyr (Arsenal™) 160 and 360 gm ai/ha plus 0.5% Sun It II when the plants were at the two to three leaf stage. Ratings were taken at 14 days after application (DAT) for injury. Injury was rated on a scale from 0 to 9 where 0=no injury to 9=dead plant. Twelve plants were sprayed per herbicide/rate treatment. Statistical analysis was conducted with STATGRAPHICS Plus 5.0 by using ANOVA and LSD procedures.
(§2) After plants were sprayed, it was realized that a height difference between S4897 and other sunflower varieties would have impacted the actual herbicide dose that was delivered. The spray boom height had been calibrated against S4897 and since the other varieties were taller and closer to the boom they would have received a greater dose of herbicide. Rates were recalibrated for the other varieties to determine the approximate dose they would have received. Assessments were made as presented in Table 2 since it was not possible to make a direct rate comparison due to the effect of the height. For example injury scores were compare for S4897 treated imazamox rate 100 gm ai/ha to the other varieties treated at 75 gm ai/ha. The treatment dose of 300 gm ai/ha for line S4897 was equivalent to the treatment of 200 gm ai/ha for the other varieties, which […].

S4897 sunflower plants = test: Greenhouse imazamox spray test (FIG. 3/4), S4897; type: in vivo, Helianthus annuus; settings: S4897 vs IMISUN-1 and wild-type; imazamox 100 and 200 g ai/ha; 17 days after application
Experimental: (§3) The S4897 and IMISUN-1 sunflower plants were spray-treated with imazamox at rate of 200 g ai/ha. […] The photograph was taken a few days after the plants were spray treated.
(§4) FIG. 4 is graphical illustration of herbicide injury in a greenhouse test following the spray treatment of IMISUN-1, wild-type, and S4897 sunflower plants with imazamox at either 100 (light columns) or 200 g ai/ha (dark columns). […] Herbicide injury was evaluated 17 days after the imazamox application.

[2] = system: Clearfield sunflower variety A; test: Greenhouse spray injury rating, Clearfield variety A; type: in vivo, Helianthus annuus
Text: as §1, §2

[3] = system: Conventional non-Clearfield sunflower variety; test: Greenhouse spray injury rating, conventional variety; type: in vivo, Helianthus annuus; settings: scale 0-9
Text: as §1, §2

[4] = system: wild-type sunflower plants; test: Greenhouse imazamox spray test (FIG. 3/4), wild-type; type: in vivo, Helianthus annuus; settings: imazamox 100 or 200 g ai/ha
Experimental: as §3, §4

[5] = system: Clearfield sunflower variety C; test: Greenhouse spray injury rating, Clearfield variety C; type: in vivo, Helianthus annuus; settings: scale 0-9
Text: as §1, §2

Sunflower line S4897 = test: Greenhouse spray injury rating, line S4897; type: in vivo, Helianthus annuus
Text: as §1, §2

[6] = system: AHAS of S4897 sunflower (Ala107-to-Thr AHASL1); test: AHAS activity analysis of young leaves; type: biochemical, Helianthus annuus; settings: S4897 vs Clearfield and conventional non-Clearfield variety; higher concentration of imazamox (FIG. 7)
Experimental: FIG. 7 is graphical illustration of a comparison of the inhibition of AHAS by Raptor for a non-Clearfield variety, a Clearfield variety and S4897 sunflower plants as described in Example 5.
FIG. 8 is graphical illustration of a comparison of the inhibition of AHAS by Glean for a non-Clearfield variety, a Clearfield variety and S4897 sunflower plants as described in Example 5.
AHAS activity analysis was also conducted by selecting actively growing young leaves from plants that were not sprayed with herbicide at approximately four weeks after planting.

[7] = imazamox 300 gm ai/ha, scale 0-9

SMILES: Cc1cnc(C2=NC(=O)C(C)(C(C)C)N2)c(C(=O)O)c1 (stereo not shown) [imazapic]
- resistance to imazapic (S4897 plants): clearly superior

SMILES: COCc1cnc(C2=NC(C)(C(C)C)C(=O)N2)c(C(=O)O)c1 (stereo not shown) [Imazamox, imazamox]
- Injury at 14 DAT ([1]; imazamox 75 gm ai/ha (100/75)): 1.9 b
- Injury at 14 DAT ([1]; imazamox 150 gm ai/ha): 4.8 c
- Injury at 14 DAT ([1]; imazamox 300 gm ai/ha): 5.3 c
- herbicide injury / resistance or tolerance (S4897 sunflower plants): significantly greater resistance or tolerance
- Injury at 14 DAT ([2]; imazamox 75 gm ai/ha (100/75), scale 0-9): 4.3 c
- Injury at 14 DAT ([2]; imazamox 150 gm ai/ha (column 200/150), scale 0-9): 4.6 c
- Injury at 14 DAT ([2]; imazamox 150 gm ai/ha (column 200/150), scale 0-9, listed as imazamox): significantly in juried and had stopped growing
- Injury at 14 DAT [2, 7]: 6.5 days
- Injury at 14 DAT ([3]; imazamox 75 gm ai/ha (100/75)): 7.2 days
- Injury at 14 DAT ([3]; imazamox 150 gm ai/ha): 8.2 days
- Injury at 14 DAT ([3]; imazamox 300 gm ai/ha): 8.7 e
- survival following spray treatment [4]: did not survive
- Injury at 14 DAT ([5]; imazamox 75 gm ai/ha (100/75)): 1.8 b
- Injury at 14 DAT ([5]; imazamox 150 gm ai/ha): 2.9 b
- Injury at 14 DAT ([5]; imazamox 300 gm ai/ha): 4.6 b
- Injury at 14 DAT (Sunflower line S4897; imazamox 100 gm ai/ha (100/75), scale 0=no injury to 9=dead plant): 0.5 a
- Injury at 14 DAT (Sunflower line S4897; imazamox 200 gm ai/ha (column 200/150), scale 0-9): 0.8 a
- Injury at 14 DAT (Sunflower line S4897; imazamox 200 gm ai/ha (column 200/150), scale 0-9, listed as imazamox): little to no injury
- Injury at 14 DAT (Sunflower line S4897; [7]): 0.8 a
- Injury at 14 DAT (Sunflower line S4897; imazamox 300 gm ai/ha, scale 0-9, listed as imazamox): very little injury
- inhibition of AHAS activity [6]: less inhibition
